The structures appear in SMILES notation.

In general, IC50 refers to the point on the concentration scale where inhibition reaches its midpoint. A higher IC50 goes with a need for much substance.

In this assay the target is Isocitrate dehydrogenase [NADP] cytoplasmic (Homo sapiens, UniProt O75874, R132H). The assay is described as follows: Inhibition of IDH1 R132H mutant (unknown origin) using alpha-ketoglutarate and NADPH incubated for 60 mins by fluorescence based assay.
Sequence of Isocitrate dehydrogenase [NADP] cytoplasmic (O75874 2-414 R132H limits assumed): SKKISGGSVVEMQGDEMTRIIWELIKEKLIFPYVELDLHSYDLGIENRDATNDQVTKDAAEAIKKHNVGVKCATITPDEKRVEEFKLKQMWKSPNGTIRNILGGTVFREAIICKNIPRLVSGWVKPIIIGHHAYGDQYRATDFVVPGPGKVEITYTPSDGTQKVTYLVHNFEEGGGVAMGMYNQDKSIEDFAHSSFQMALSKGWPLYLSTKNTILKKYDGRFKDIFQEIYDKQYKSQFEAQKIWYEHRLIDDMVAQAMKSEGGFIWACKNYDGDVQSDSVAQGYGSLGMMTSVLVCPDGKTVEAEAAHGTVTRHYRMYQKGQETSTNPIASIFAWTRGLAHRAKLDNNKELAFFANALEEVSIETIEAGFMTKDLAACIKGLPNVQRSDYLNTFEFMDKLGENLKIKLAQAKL
Consider `COc1ccc(COc2nc(N3CCC[C@@H](CC(=O)O)C3)ccc2C(=O)NC2CCCCC2)cc1`, for which the IC50 was greater than 50 µM. Next, `CC(C)CCOc1nc(N2C[C@@H]3[C@H](C2)[C@H]3C(=O)O)ccc1C(=O)NCc1ccc(Cl)cc1`: 17 µM; `COCCOc1nc(N2CCC[C@@H](CC(=O)O)C2)ccc1C(=O)NC1CCCCC1`: greater than 50 µM; `CC(C)CCOc1nc(Nc2coc(C(=O)O)n2)ccc1C(=O)NC1C2CC3CC1CC(O)(C3)C2` (stereo unspecified): 21 µM. Then `CC(C)CCOc1nc(N2C[C@@H]3[C@H](C2)[C@H]3C(=O)O)ccc1C(=O)Nc1cccc(O)c1`, with 2.9 µM; and `O=C(O)C[C@@H]1CCCN(c2ccc(C(=O)NC3CCCCC3)c(OCc3ccccc3Cl)n2)C1`, with 7 µM; and `CC(C)CCOc1nc(N2C[C@@H]3[C@H](C2)[C@H]3C(=O)O)ccc1C(=O)NCc1ccncc1`, with 6.2 µM. Then `COc1ccccc1COc1nc(N2CCC[C@@H](CC(=O)O)C2)ccc1C(=O)NC1CCCCC1`, with 13 µM; and `CC(C)CCOc1nc(Nc2cccc(C(=O)O)c2)ccc1C(=O)NC1C2CC3CC1CC(O)(C3)C2` (stereo unspecified), with 11 µM; and `Cc1ccccc1COc1nc(N2C[C@@H]3[C@H](C2)[C@H]3C(=O)O)ccc1C(=O)NC1C2CC3CC1CC(O)(C3)C2` (stereo partly specified), with 4.5 µM.

`CC(C)CCOc1nc(Nc2csc(C(=O)O)n2)ccc1C(=O)NC1C2CC3CC1CC(O)(C3)C2` (stereo unspecified): the IC50 came out at 0.81 µM. Next, `O=C(O)C[C@@H]1CCCN(c2ccc(C(=O)NC3CCCCC3)c(OC3CCCCC3)n2)C1`: 12 µM; `COc1cccc(COc2nc(N3CCC[C@@H](CC(=O)O)C3)ccc2C(=O)NC2CCCCC2)c1`: 12 µM; `CC(C)CCOc1nc(N2C[C@@H]3[C@H](C2)[C@H]3C(=O)O)ccc1C(=O)Nc1cccc(CO)c1`: 3.2 µM. Take `CC(C)CCOc1nc(N2C[C@@H]3[C@H](C2)[C@H]3C(=O)O)ccc1C(=O)N[C@@H](CO)c1ccccc1`: the IC50 was determined as 5.6 µM. `CC(C)CCOc1nc(N2C[C@@H]3[C@H](C2)[C@H]3C(=O)O)ccc1C(=O)Nc1ccc(O)cc1` registered an IC50 of 5 µM. Next, `O=C(O)C[C@@H]1CCCN(c2ccc(C(=O)NC3CCCCC3)c(OC3CCOCC3)n2)C1`: greater than 50 µM; `CC(C)CCSc1nc(N2CCC[C@@H](CC(=O)O)C2)ccc1C(=O)NC1CCCCC1`: 10 µM; `CCCC(C)Oc1nc(N2CCC[C@@H](CC(=O)O)C2)ccc1C(=O)NC1CCCCC1` (stereo partly specified): 12 µM.

As to `CC(C)CCOc1nc(N2C[C@@H]3[C@H](C2)[C@H]3C(=O)O)ccc1C(=O)Nc1cccc(NS(C)(=O)=O)c1`, the IC50 is 5.4 µM. Consider `O=C(O)C[C@@H]1CCCN(c2ccc(C(=O)NC3CCCCC3)c(OCCCC(F)(F)F)n2)C1`, for which the IC50 came out at 15 µM. Consider `CN(C)CCOc1nc(N2CCC[C@@H](CC(=O)O)C2)ccc1C(=O)NC1CCCCC1`, for which the IC50 is greater than 50 µM. In turn, `C[C@H](Oc1nc(N2CCC[C@@H](CC(=O)O)C2)ccc1C(=O)NC1CCCCC1)c1ccccc1` came in with a half-maximal inhibitory concentration (IC50) of 11 µM.

`CCC(C)COc1nc(N2CCC[C@@H](CC(=O)O)C2)ccc1C(=O)NC1CCCCC1` (stereo partly specified) yielded an IC50 of 16 µM. Next, `CC(C)CCOc1nc(N2C[C@@H]3[C@H](C2)[C@H]3C(=O)O)ccc1C(=O)NC[C@H](O)c1ccccc1`: 3 µM; `CC(C)CCOc1nc(N2C[C@@H]3[C@H](C2)[C@H]3C(=O)O)ccc1C(=O)Nc1ccc(CO)cc1`: 5.6 µM. In turn, `O=C(O)C[C@@H]1CCCN(c2ccc(C(=O)NC3CCCCC3)c(SCc3ccccc3)n2)C1` gave an IC50 of 39 µM.

The compound `CC1(C)CC(Oc2nc(N3CCC[C@@H](CC(=O)O)C3)ccc2C(=O)NC2CCCCC2)C1` yielded an IC50 of 7.2 µM.

`CC(C)CCOc1nc(N2C[C@@H]3[C@H](C2)[C@H]3C(=O)O)ccc1NC(=O)C1CCCCC1` registered an IC50 greater than 50 µM. As to `Cc1ccccc1CNc1nc(N2CCC[C@@H](CC(=O)O)C2)ccc1C(=O)NC1CCCCC1`, the IC50 was greater than 50 µM. Then `CC(C)CCOc1nc(N2C[C@@H]3[C@H](C2)[C@H]3C(=O)O)ccc1C(=O)Nc1cccc(B(O)O)c1`, with 4.6 µM; and `CC(C)CCOc1nc(N2CCC(C(=O)O)CC2)ccc1C(=O)NC1C2CC3CC1CC(O)(C3)C2` (stereo unspecified), with 3.4 µM. Then `O=C(O)C[C@@H]1CCCN(c2ccc(C(=O)NC3CCCCC3)c(OCc3cccc(Cl)c3)n2)C1`, with 9.9 µM; and `O=C(O)C[C@@H]1CCCN(c2ccc(C(=O)NC3CCCCC3)c(OCc3ccc(F)cc3)n2)C1`, with 8.8 µM; and `CC(C)CCOc1nc(N2C[C@@H]3[C@H](C2)[C@H]3C(=O)O)ccc1C(=O)NC1CCCCCC1`, with 3.9 µM. Take `O=C(O)C[C@@H]1CCCN(c2ccc(C(=O)NC3CCCCC3)c(OCCc3ccccc3)n2)C1`: the IC50 was determined as 43 µM. Next, `Cc1ccc(COc2nc(N3CCC[C@@H](CC(=O)O)C3)ccc2C(=O)NC2CCCCC2)cc1`: greater than 50 µM. For the compound `CC(C)CCOc1nc(N2C[C@@H]3[C@H](C2)[C@H]3C(=O)O)ccc1C(=O)N[C@H](C)c1ccccc1`, the IC50 was 5.4 µM.

As to `O=C(O)C[C@@H]1CCCN(c2ccc(C(=O)NC3CCCCC3)c(OC3CCC3)n2)C1`, the IC50 is greater than 50 µM. In turn, `O=C(O)C[C@@H]1CCCN(c2ccc(C(=O)NC3C4CC5CC3CC(O)(C5)C4)c(OCc3ccccc3)n2)C1` (stereo partly specified) had an IC50 of 2.3 µM. Then `C[C@@H](Oc1nc(N2CCC[C@@H](CC(=O)O)C2)ccc1C(=O)NC1CCCCC1)c1ccccc1`, with 5.9 µM; and `O=C(O)C[C@@H]1CCCN(c2ccc(C(=O)NC3CCCCC3)c(OCc3cccc(F)c3)n2)C1`, with 10 µM; and `O=C(O)C[C@@H]1CCCN(c2ccc(C(=O)NC3CCCCC3)c(NC3CCCC3)n2)C1`, with greater than 50 µM. Next, `CC(C)CCOc1nc(N2CCC[C@@H](CC(=O)O)C2)ccc1C(=O)NC1CCCCC1`: 6.4 µM; `CC(C)CCOc1nc(N2C[C@@H]3[C@H](C2)[C@H]3C(=O)O)ccc1C(=O)N[C@H](CO)c1ccccc1`: 12 µM.

Regarding `CC1CC1COc1nc(N2CCC[C@@H](CC(=O)O)C2)ccc1C(=O)NC1CCCCC1` (stereo partly specified), the IC50 is 14 µM. This IC50 and that of the compound before are within 1.5-fold of each other. Next, `O=C(O)C[C@@H]1CCCN(c2ccc(C(=O)NC3CCCCC3)c(NCC3CCCCC3)n2)C1`: greater than 50 µM; `Cc1ccccc1CSc1nc(N2CCC[C@@H](CC(=O)O)C2)ccc1C(=O)NC1CCCCC1`: greater than 50 µM; `O=C(O)C[C@@H]1CCCN(c2ccc(C(=O)NC3CCCCC3)c(OCc3ccccc3)n2)C1`: 8.6 µM.

Consider `CCOc1nc(N2CCC[C@@H](CC(=O)O)C2)ccc1C(=O)NC1CCCCC1`, for which the IC50 is greater than 50 µM.

With `CC(C)CCOc1nc(N2C[C@@H]3[C@H](C2)[C@H]3C(=O)O)ccc1C(=O)NC1CC2CCC1C2` (stereo partly specified), the IC50 is 14 µM.

Regarding `CC(C)(C)CCOc1nc(N2CCC[C@@H](CC(=O)O)C2)ccc1C(=O)NC1CCCCC1`, half-maximal inhibition (IC50) required 7.6 µM.

In turn, `O=C(O)C[C@@H]1CCCN(c2ccc(C(=O)NC3CCCCC3)c(OCC3CCCCC3)n2)C1` had an IC50 of 9.7 µM. This IC50 and that of the compound before are within 1.5-fold of each other. Turning to `O=C(NC1C2CC3CC1CC(O)(C3)C2)c1ccc(N2C[C@@H]3[C@H](C2)[C@H]3C(=O)O)nc1OCc1ccccc1` (stereo partly specified), the IC50 was 27 µM. Next, `CC(C)CCOc1nc(N2C[C@@H]3[C@H](C2)[C@H]3C(=O)O)ccc1C(=O)NC1CCCCC1`: 7.9 µM.

For the compound `CC(C)CCOc1nc(N2C[C@@H]3[C@H](C2)[C@H]3C(=O)O)ccc1C(=O)N(C)C1CCCCC1`, 17 µM corresponded to half-maximal inhibition (IC50). Then `Cc1ccccc1[C@@H](C)Oc1nc(N2CCC[C@@H](CC(=O)O)C2)ccc1C(=O)NC1CCCCC1`, with 5.8 µM; and `CC(C)COc1nc(N2CCC[C@@H](CC(=O)O)C2)ccc1C(=O)NC1CCCCC1`, with 26 µM; and `O=C(O)C[C@@H]1CCCN(c2ccc(C(=O)NC3CCCCC3)c(OCc3ccc(Cl)cc3)n2)C1`, with 7.7 µM. `CCOC(=O)[C@H]1[C@@H]2CN(c3ccc(C(=O)NC4C5CC6CC4CC(O)(C6)C5)c(OCCC(C)C)n3)C[C@@H]21` (stereo partly specified) gave an IC50 of 13.5 µM. Against the preceding compound, the IC50 is about 1.8-fold higher.

`CC(C)CCOc1nc(Nc2nc(CC(=O)O)cs2)ccc1C(=O)NC1C2CC3CC1CC(O)(C3)C2` (stereo unspecified) came in with an IC50 greater than 50 µM. Next, `CC(Oc1nc(N2CCC[C@@H](CC(=O)O)C2)ccc1C(=O)NC1CCCCC1)C1CC1` (stereo partly specified): 20 µM; `O=C(NC1C2CC3CC1CC(O)(C3)C2)c1ccc(N2C[C@@H]3[C@H](C2)[C@H]3C(=O)O)nc1OCc1ccccc1Cl` (stereo partly specified): 3.2 µM; `CC(C)CCOc1nc(N2C[C@@H]3[C@H](C2)[C@H]3C(=O)O)ccc1C(=O)NCCc1ccccc1`: 3.9 µM.

`CC(C)CCOc1nc(-c2ccc(C(=O)O)cc2)ccc1C(=O)NC1C2CC3CC1CC(O)(C3)C2` (stereo unspecified) displayed an IC50 of 3 µM. Next, `Cc1cc(Cl)ccc1COc1nc(N2CCC[C@@H](CC(=O)O)C2)ccc1C(=O)NC1CCCCC1`: 38 µM; `O=C(O)C[C@@H]1CCCN(c2ccc(C(=O)NC3CCCCC3)c(SCc3ccccc3F)n2)C1`: 21 µM.

In the case of `CC(C)CCOc1nc(N2C[C@@H]3[C@H](C2)[C@H]3C(=O)O)ccc1C(=O)NC1CCC(O)CC1` (stereo partly specified), half-maximal inhibition (IC50) required 8.2 µM. Then `CC(C)CCOc1nc(N2C[C@@H]3[C@H](C2)[C@H]3C(=O)O)ccc1C(=O)N(C)Cc1ccccc1`, with 7.4 µM; and `CC(C)CC(C)Oc1nc(N2CCC[C@@H](CC(=O)O)C2)ccc1C(=O)NC1CCCCC1` (stereo partly specified), with 12 µM. Next, `Cc1ccccc1COc1nc(N2CCC[C@@H](CC(=O)O)C2)ccc1C(=O)NC1C2CC3CC1CC(O)(C3)C2` (stereo partly specified): 0.69 µM; `O=C(O)C[C@@H]1CCCN(c2ccc(C(=O)NC3C4CC5CC3CC(O)(C5)C4)c(OCc3ccccc3Cl)n2)C1` (stereo partly specified): 2.3 µM; `CC(C)CCOc1nc(N2C[C@@H]3[C@H](C2)[C@H]3C(=O)O)ccc1C(=O)NC[C@@H](O)c1ccccc1`: 3.1 µM.

Regarding `CCCCOc1nc(N2CCC[C@@H](CC(=O)O)C2)ccc1C(=O)NC1CCCCC1`, the IC50 was 12 µM. Take `COC12CC3CC(C1)C(NC(=O)c1ccc(N4C[C@@H]5[C@H](C4)[C@H]5C(=O)O)nc1OCCC(C)C)C(C3)C2` (stereo partly specified): the IC50 is 0.27 µM. Take `O=C(O)C[C@@H]1CCCN(c2ccc(C(=O)NC3CCCCC3)c(OCC3CC3)n2)C1`: it took 30 µM to reach half-maximal inhibition (IC50).
